Measured values taken from PMC6511943, “Structure-Guided Drug Design of 6-Substituted Adenosine Analogues as Potent Inhibitors of Mycobacterium tuberculosis Adenosine Kinase” (Journal of Medicinal Chemistry, 2019).

System: Mtb H37Rv-resistant mutants (adoK D251N, Q172P, G262S)
Format: cell-based, Mycobacterium tuberculosis

`Nc1ncnc2c1c(I)cn2[C@@H]1O[C@H](CO)[C@@H](O)[C@H]1O` [Compound 2, Iodotubercidin] gave an MIC greater than 100 µM.
